The text below walks through data of ChEMBL document CHEMBL1208782, “Synthesis and pharmacological validation of a novel series of non-steroidal FXR agonists” (Bioorg Med Chem Lett, 2010).

In general, pEC50 refers to the EC50 on a negative log10 scale, so that one unit is a factor of ten.

pEC50: −log10 of the molar value.

What all share (format): functional, cell-based
In test [1] the target is T1, Mineralocorticoid receptor (Homo sapiens, UniProt P08235).
T1 sequence (P08235 whole entry): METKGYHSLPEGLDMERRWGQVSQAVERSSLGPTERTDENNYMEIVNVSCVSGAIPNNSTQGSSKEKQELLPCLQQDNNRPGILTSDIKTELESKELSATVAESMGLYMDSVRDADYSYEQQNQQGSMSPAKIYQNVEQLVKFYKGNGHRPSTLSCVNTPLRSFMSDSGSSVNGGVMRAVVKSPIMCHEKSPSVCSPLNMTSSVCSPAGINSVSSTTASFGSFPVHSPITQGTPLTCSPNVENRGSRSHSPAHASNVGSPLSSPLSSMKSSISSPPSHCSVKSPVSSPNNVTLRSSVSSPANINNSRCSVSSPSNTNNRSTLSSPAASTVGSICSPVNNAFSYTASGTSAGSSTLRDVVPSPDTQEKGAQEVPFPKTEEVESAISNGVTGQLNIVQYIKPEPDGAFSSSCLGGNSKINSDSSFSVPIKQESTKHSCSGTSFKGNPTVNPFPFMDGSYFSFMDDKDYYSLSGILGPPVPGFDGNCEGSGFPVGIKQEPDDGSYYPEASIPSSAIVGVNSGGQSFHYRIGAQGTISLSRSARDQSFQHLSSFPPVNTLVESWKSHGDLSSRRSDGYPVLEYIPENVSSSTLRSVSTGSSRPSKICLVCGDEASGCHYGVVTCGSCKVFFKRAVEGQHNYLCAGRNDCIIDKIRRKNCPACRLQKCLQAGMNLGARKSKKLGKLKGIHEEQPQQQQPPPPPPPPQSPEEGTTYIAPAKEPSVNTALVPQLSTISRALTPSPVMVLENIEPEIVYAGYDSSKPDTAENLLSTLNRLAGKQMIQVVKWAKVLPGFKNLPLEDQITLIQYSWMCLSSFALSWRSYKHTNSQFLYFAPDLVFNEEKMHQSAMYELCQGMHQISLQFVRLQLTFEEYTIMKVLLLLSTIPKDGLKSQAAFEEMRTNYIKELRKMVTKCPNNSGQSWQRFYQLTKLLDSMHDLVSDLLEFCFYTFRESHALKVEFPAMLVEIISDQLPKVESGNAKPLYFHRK
Nature of the test: Agonist activity at mineralocorticoid receptor-LBD expressed in HEK293 cells assessed as Gal4-DBD interaction by cellular mammalian one hybrid assay.

Test [2] concerns the target T2, Bile acid receptor (Homo sapiens) (UniProt Q96RI1).
T2 sequence (whole entry): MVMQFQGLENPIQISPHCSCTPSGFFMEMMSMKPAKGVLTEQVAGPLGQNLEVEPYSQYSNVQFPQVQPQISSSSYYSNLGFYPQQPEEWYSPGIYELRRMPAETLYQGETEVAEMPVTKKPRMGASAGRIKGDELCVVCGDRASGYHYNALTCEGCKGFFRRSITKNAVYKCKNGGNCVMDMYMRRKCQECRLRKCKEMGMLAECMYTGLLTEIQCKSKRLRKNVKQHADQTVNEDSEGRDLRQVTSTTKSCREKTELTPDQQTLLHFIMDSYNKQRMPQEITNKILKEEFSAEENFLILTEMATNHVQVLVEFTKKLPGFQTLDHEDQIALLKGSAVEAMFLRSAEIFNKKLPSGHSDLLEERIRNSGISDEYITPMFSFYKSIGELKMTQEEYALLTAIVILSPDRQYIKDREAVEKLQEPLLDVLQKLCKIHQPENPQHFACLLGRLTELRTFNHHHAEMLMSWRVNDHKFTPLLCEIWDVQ
Nature of the test: Agonist activity at human […] FXR LBD expressed in HEK293 cells coexpressing GAL4-DNA bindig domain and pFRluc by mammalian one-hybrid assay relative to GW-4064.

Test [3] concerns the target T3, Retinoic acid receptor alpha (Homo sapiens) (UniProt P10276).
T3 sequence (whole entry): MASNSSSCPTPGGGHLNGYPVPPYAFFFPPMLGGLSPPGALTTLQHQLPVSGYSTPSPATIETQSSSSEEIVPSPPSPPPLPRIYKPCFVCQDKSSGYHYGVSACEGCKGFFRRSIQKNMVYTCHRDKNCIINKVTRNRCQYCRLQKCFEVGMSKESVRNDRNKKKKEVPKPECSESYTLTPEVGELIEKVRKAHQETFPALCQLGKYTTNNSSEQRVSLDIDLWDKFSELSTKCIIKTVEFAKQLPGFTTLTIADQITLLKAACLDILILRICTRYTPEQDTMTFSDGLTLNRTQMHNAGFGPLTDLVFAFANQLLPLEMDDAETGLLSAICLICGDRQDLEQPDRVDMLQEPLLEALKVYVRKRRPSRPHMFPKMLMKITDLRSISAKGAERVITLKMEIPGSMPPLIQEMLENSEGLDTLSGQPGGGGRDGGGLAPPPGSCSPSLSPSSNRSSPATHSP
Nature of the test: Agonist activity at RARalpha-LBD expressed in HEK293 cells assessed as Gal4-DBD interaction by cellular mammalian one hybrid assay relative to retinoic acid.

The next test deals with T4, Vitamin D3 receptor (Homo sapiens, UniProt P11473).
T4 sequence (P11473 whole entry): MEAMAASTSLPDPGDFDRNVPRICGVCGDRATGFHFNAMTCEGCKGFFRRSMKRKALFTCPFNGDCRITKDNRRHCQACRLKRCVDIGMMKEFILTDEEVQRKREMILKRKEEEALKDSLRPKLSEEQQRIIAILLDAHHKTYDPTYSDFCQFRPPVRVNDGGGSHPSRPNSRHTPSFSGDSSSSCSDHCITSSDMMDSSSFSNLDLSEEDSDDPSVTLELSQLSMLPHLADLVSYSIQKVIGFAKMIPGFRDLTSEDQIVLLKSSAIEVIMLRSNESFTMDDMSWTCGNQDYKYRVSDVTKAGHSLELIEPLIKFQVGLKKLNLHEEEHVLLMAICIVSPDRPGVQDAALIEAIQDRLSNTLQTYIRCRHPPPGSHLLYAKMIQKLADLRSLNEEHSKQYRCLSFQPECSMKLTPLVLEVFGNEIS
Nature of the test: Agonist activity at VDR-LBD expressed in HEK293 cells assessed as Gal4-DBD interaction by cellular mammalian one hybrid assay.

For `CC(C)c1onc(-c2c(Cl)cccc2Cl)c1COc1ccc(N(C)Cc2ccc(C(=O)O)cc2)c(C(F)(F)F)n1`, the pEC50 (in test [1]; on Vitamin D3 receptor) was < 5.00 each time. Further, the Efficacy in test [2] was 75%; in test [3], 0%.
Regarding `CN(Cc1cccc(C(=O)O)c1)c1ccc(OCc2c(-c3c(Cl)cccc3Cl)noc2C2CC2)nc1C(F)(F)F`, the pEC50 (in test [1]; on Vitamin D3 receptor) was < 5.00 each time. The values for the Efficacy in test [2] and in test [3] were 79% and 0%, respectively.
As to `CN(Cc1ccc(C(=O)O)cc1)c1ccc(OCc2c(-c3c(Cl)cccc3Cl)noc2C2CC2)nc1C(F)(F)F`, the pEC50 (in test [1]; on Vitamin D3 receptor) was < 5.00 in each case. Moreover, the Efficacy in test [2] came out at 81%; in test [3], 0%.
